Results reported in PMC4450297, “Screening Active Compounds from Garcinia Species Native to China Reveals Novel Compounds Targeting the STAT/JAK Signaling Pathway” (BioMed Research International, 2015).

Tests used:
[1] = tested on: phosphorylation of STAT3 upon IL-6 stimulation in HepG2 cells; test: Western blot, IL-6-stimulated STAT3 activation; assay type: cell-based, human; conditions: pretreated 2 h, IL-6 10 ng/mL 15 min
Procedure: (§1) Floating and adherent cells were harvested and treated with ice-cold RIPA lysis buffer (50 mM Tris-HCl, pH 7.5, 0.5% cholic acid, 2 mM EDTA, 10% glycerol, 150 mM NaCl, 0.1% SDS, and 1% Triton X-100) containing complete Mini Protease Inhibitor Cocktail (Roche Applied Science, Indianapolis, IN). Proteins were separated by sodium dodecyl sulfate polyacrylamide gel electrophoresis and transferred to nitrocellulose membranes. Membranes were blocked with 5% BSA in washing buffer (100 mM NaCl, 10 mM Tris-HCl, pH 7.5, and 0.1% Tween-20) for 1 hr at room temperature and incubated with the respective primary antibodies in 5% BSA in washing buffer overnight at 4°C with shaking. The membranes were probed with the following antibodies: p44/42 (Cat#9107, CST), phospho-p44/42 (Cat#4370, CST), AKT (Cat#9272, CST), phospho-AKT (ser473) (Cat#9271, CST), STAT3 (Cat#9139, CST), and phospho-STAT3 (Tyr705) (Cat#9131, CST). Membranes were then washed and incubated with anti-mouse or anti-rabbit fluorescent secondary antibodies (LICOR, US) diluted in washing buffer for 1 h at room temperature with shaking. Protein bands were detected using an Odyssey Imaging system (LICOR, US).

[2] = tested on: STAT3, ERK, AKT phosphorylation in NCI-H1650 cells; test: Western blot analysis in NCI-H1650 cells; assay type: cell-based, human; conditions: 8 h
Procedure: as §1

HuVec = test: Cell proliferation assay (CellTiter-Glo), control cell line; assay type: cell-based; conditions: Homo sapiens, 72 h
Procedure: All cells were obtained from the cell bank of the American Type Culture Collection (ATCC) and cultured in the supplier's recommended media supplemented with 10% FBS. The cell panel screen was measured using the CellTiter-Glo assay (Promega, Madison, WI) following a standard protocol. Briefly, cancer cells were seeded in 96-well plates and cultured overnight at 37°C with or without 5% CO2 in an incubator. Each compound was dissolved with limited DMSO and diluted to a certain concentration with culture medium and then added to the corresponding well of the cell plate. The final concentration of compound was 20 μM. The control cells (without treatment) received the same amount of DMSO and were incubated under the same conditions. After 72 h cultivation, 100 μL of the CellTiter-Glo reagent was added directly to each well for 10-minute incubation. The plate was then read on a FlexStation 3 microplate luminometer (Molecular Devices, USA) to monitor the luminescence signal generated by the luciferase-catalyzed reaction of luciferin and ATP. The percent of growth inhibition was calculated using the following formula: (untreated cells − treated cells)/(untreated cells − background without cells) ∗ 100.
For proliferation assays, the CellTiter-Glo assay (Promega, Madison, WI) was used to evaluate the proliferation of cancer cells treated with test compounds as described above. Each compound was dissolved in limited DMSO and diluted to various concentrations with culture medium and then added to the corresponding wells. A dose-response curve was plotted, and the IC50 was calculated using XLfit software.

SMILES | phosphorylation of STAT3 upon IL-6 stimulation [1] | Phosphorylation of ERK and AKT [2] | STAT3 expression and its phosphorylation (Tyr705) [2] | IC50 (HuVec) [µM]
CC(C)=CCC[C@@]1(C)C=Cc2c(O)c3c(c(C/C=C(\C)CO)c2O1)O[C@]12C(=C[C@@H]4C[C@H]1C(C)(C)O[C@@]2(C/C=C(/C)C(=O)O)C4=O)C3=O [GB40, 35-hydroxyepigambogic acid] | efficiently suppressed | inhibited | inhibited STAT3 expression and its phosphorylation in a dose-dependent manner | 0.68 ± 0.01
CC(C)=CCC/C(C)=C/Cc1c(O)c(CC=C(C)C)c2c(c1O)C(=O)C1=C[C@@H]3C[C@H]4C(C)(C)O[C@@](CC=C(C)C)(C3=O)[C@@]14O2 [GB32] | – | – | – | 1.63 ± 0.06
CC(C)=CCC/C(C)=C/Cc1c(O)c(CC=C(C)C)c2c(c1O)C(=O)C1=C[C@@H]3C[C@H]4C(C)(C)O[C@@](C/C=C(\C)C(=O)O)(C3=O)[C@@]14O2 [GB63] | – | – | – | 1.9 ± 0.03
CC(C)=CCC[C@@]1(C)C=Cc2c(O)c3c(c(CCC(C)(C)O)c2O1)O[C@]12C(=C[C@@H]4C[C@H]1C(C)(C)O[C@@]2(C/C=C(/C)C(=O)O)C4=O)C3=O [GB39, 33-hydroxyepigambogic acid] | efficiently suppressed | inhibited | inhibited STAT3 expression and its phosphorylation in a dose-dependent manner | 0.89 ± 0.09
CC(C)=CCC/C(C)=C/Cc1c(O)c(CC=C(C)C)c2c(c1O)C(=O)C1=C[C@@H]3C[C@H]4C(C)(C)O[C@@](C/C=C(\C)C=O)(C3=O)[C@@]14O2 [GB49] | – | – | – | 1.47 ± 0.07
